“Also recorded” adds a separate entry of the source. Like-named read-outs stand apart in the source and are kept apart here.
What was measured:
pancreas [1] = test: large animal study of pancreatic sP injection via the celiac artery; format: in vivo, dog
Experimental: A large animal study in dogs has recently been completed, seeking evidence for sP-induced pancreas toxicity following pancreatic injection of sP via the celiac artery. […] The injections were conducted by the Sick Kids' clinical imaging team. Since this VanilloidGenetics-sponsored study is unlikely to be published by itself, excerpt imaging data are provided in the Protocol Addendum, showing the pancreas-selective, rapidly transient (˜7 min) sP effect as measured with a co-injected, inert blue dye marker. The short-lived, physiological sP responses (hyperemia→pancreas→selective hyperperfusion and extravasation→normal pancreas appearance) illustrate the core effects expected to be duplicated in T1D patients.
A large animal study of pancreatic sP injection in dogs, using modern pancreatitis diagnostics is currently being conducted (Mansfield et al., J. Vet. Diagn. Invest. 23, 691-697 (2011)) and histopathology for the detection of possible pancreatitis lesions. Data are expected to be complete within about two weeks of this writing, in time for the anticipated Pre-CTA meeting. Dogs are a rational choice of large animal experimental model, since Dogs spontaneously develop pancreatitis, have successfully been used in studies of experimental pancreatitis and well tested diagnostics are available (Trivedi et al., J. Vet. Intern. Med. 25, 1241-1247 (2011)).

[2] = earlier and current trials, literature and trials registry, cited from earlier work
pancreas [3] = conditions: intra-arterial injection, recent-onset diabetic mice, dose range 0.01-250 nmol/kg; cited from earlier work
pancreas [4] = test: pancreas pathology / toxicity after intra-arterial sP injection in rodents; format: in vivo, mouse
From the text: Both islets are surrounded by normal exocrine pancreas tissue without any lesions typical for pancreatitis.
For disease induction, the standard experimental pancreatitis model employs multiple high dose injections of the toxic secretagogue caerulein (Koh et al., J. Cell. Mol. Med. 15, 2139-2149 (2011)).

[5] = cited from earlier work; for tissue half-life: in vivo

Question: Which “tolerability in canine studies” value (pancreas [1]; 10, 50, 100 or 250 nmol/kg BW) does the source give for `CSCC[C@H](NC(=O)[C@H](CC(C)C)NC(=O)CNC(=O)[C@H](Cc1ccccc1)NC(=O)[C@H](Cc1ccccc1)NC(=O)[C@H](CCC(N)=O)NC(=O)[C@H](CCC(N)=O)NC(=O)[C@@H]1CCCN1C(=O)[C@H](CCCCN)NC(=O)[C@@H]1CCCN1C(=O)[C@@H](N)CCCN=C(N)N)C(N)=O` [sP, substance P] here?
Answer: well tolerated

Question: And the “sP-induced pancreas toxicity in dogs” value (pancreas [1]; celiac artery injection, study-relevant dose range, blood tests (>1200 assays) and histopathology)?
Answer: not pancreas toxic; also recorded: No drug-induced toxicity was found

Question: What about the “adverse events of sP celiac injections” value (pancreas [1]; entire canine study) of the same compound?
Answer: without adverse events

Question: What about the “toxicity / adverse events in human clinical sP trials” value [2] of the same compound?
Answer: without sP-attributable adverse events

Question: And the “toxicity / adverse events in human clinical sP trials” value ([2]; listed as substance P)?
Answer: lack of toxicity

Question: And the “pancreas pathology consistent with pancreatitis” value (pancreas [3])?
Answer: has not been observed

Question: What about the “tolerability in rodent studies” value (pancreas [4]; 10, 50, 100 or 250 nmol/kg BW) of the same compound?
Answer: well tolerated

Question: And the “tissue damage or pancreatitis-like disease” value (pancreas [4]; sP injection without caerulein)?
Answer: does not cause tissue damage or pancreatitis-like disease

Question: What about the “sP pancreas toxicity in rodents” value (pancreas [4]; without caerulein pretreatment) of the same compound?
Answer: has not been observed

Question: And the vascular half-life time ([5]; as low as)?
Answer: < 30 s

Question: And the vascular half-life time ([5]; in some locales)?
Answer: up to a minute

Question: What about the tissue half-life [5] of the same compound?
Answer: < 60 s

Question: What about the tissue half-life ([5]; listed as substance P) of the same compound?
Answer: a minute or less

Question: What about the “time to inactivation in tissue” value ([5]; proteolytic degradation and binding to NK1R in tissue) of the same compound?
Answer: within seconds
